Molecules are shown by their SMILES. “Also recorded” adds a separate entry of the source.

The target in data set [1] is α-Syn fibrils (Homo sapiens, UniProt P37840). In words: competitive binding assay with α-Syn fibrils and [18F]F0502B. The following applies: fixed concentrations of α-Syn fibrils and [18F]F0502B, increasing concentrations of cold compound.
In data set [2] the test system is senile plaques or NFT in AD. Description: ex vivo screening on AD patient brain sections. In kind it is binding, human. An excerpt: (§1) Ex vivo screening was extended into human DLB, MSA and AD patient samples. […] Since there are detectable α-Syn aggregates in AD patient brains, these compounds colocalized with p-S129 positive α-Syn inclusions.
(§2) The ex vivo screening was extended into human DLB, MSA and AD patient samples. Neurodegenerative disease of DLB (dementia with Lewy Bodies) and MSA belongs to synucleinopathies with well-defined Lewy bodies.

The target in data set [3] is T1, LBs and LNs in DLB and MSA patient brains (Homo sapiens, UniProt P37840).
T1 construct: from tissue; host or cells: brain sections of DLB and MSA patients
Description: ex vivo screening on DLB and MSA patient brain sections. The format is binding.
Description: as §1, §2

The target of data set [4] is T2, Lewy bodies positive with anti-p-α-Syn S129 in A53T PD mouse model (Homo sapiens, UniProt P37840, A53T).
T2 construct: from tissue; host or cells: brain (substantia nigra) of wild-type mice injected with α-Syn A53T virus
Description: brain section staining after in vivo administration, Lewy bodies. On the procedure:
(§3) […] In 2 h, the mice were sacrificed and stained the mouse brain sections with anti-Aβ, AT8 and p-S129 and ThS, respectively.
(§4) The p-S129 positive Lewy bodies in A53T PD mice were further confirmed by anti-aggregated α-Syn 5G2 antibody.

A short description of data set [5]: F0502B in vivo PK study and B/P ratios. On the set-up: species or system mouse. The following applies: mice, i.v. 5 mg/kg. How it is done: To ensure that F0502B meets a PET tracer's kinetic criteria with rapid penetration into the brain and swift wash out, an in vivo PK study was performed in mice with i.v. injection of 5 mg/kg of F0502B.
In data set [6] the test system is α-Syn aggregated neurons. In words: neuronal α-Syn aggregation model, fluorescent microscopy. In kind it is cell-based. The following applies: primary cultured neurons, AAV-α-Syn plus α-Syn PFFs. An excerpt:
A series of derivatives were synthesized by including an amino group and a methyl group on benzothiazole to increase the brain permeability and fluorescent signals. The derivatives were subsequently subjected to α-Syn PFFs binding assay and counter-screening with Tau and Aβ PFFs. […] These compounds were screened on the neuronal α-Syn, Tau and Aβ aggregation model for the binding selectivity. Primary cultured neurons were infected with AAV-α-Syn, AAV-Tau FL for 7 days, then treated with α-Syn, Tau or Aβ PFFs. In a few days, the positive compounds were added in the primary neurons with indicated aggregates and analyzed under fluorescent microscopy.
Primary cultured neurons were infected with AAV-α-Syn, AAV-Tau FL or AAV-APP fragment virus for 7 days, and then treated with α-Syn, Tau or Aβ PFFs by following the described protocols (Volpicelli-Daley et al., 2014). In a few days, the positive compounds were added in the primary neurons with indicated aggregation.

For data set [7], the target named is T3, Lewy bodies in the brain sections from LBD patients (Homo sapiens, UniProt P37840).
T3 construct: from tissue; host or cells: brain sections of LBD patients
Description: autoradiography with [18F]F0502B, human brain slices. The format is binding. Conditions: excessive cold compound. On the procedure: [^18F]F0502B was evaluated in vitro and ex vivo binding assays to validate its specificity. α-Syn, Tau and Aβ PFFs were respectively incubated with increasing concentrations of [^18F]F0502B. The binding data were analyzed by curve fitting using nonlinear regression to obtain Kd and Bmax values. The Kd and a Bmax manifested the specific binding affinity with different fibrils. […] Autoradiography with [^18F]F0502B in human brain slices was performed. […] Together, these findings support that F0502B specifically and tightly binds to α-Syn fibrils in the Lewy bodies.

Data set [8] addresses Tau PFFs (Homo sapiens, UniProt P10636). In words: fluorescence spectroscopy titration with Tau PFFs. The format is binding. Conditions: 0.08 μM fibrils, 5 μM small molecule; result in words. How it is done: (§5) A fluorescent titration assay was conducted. The fluorescent emission intensities were determined with 0.08 μM of various fibrils in the presence of 5 μM of the small molecules.
(§6) To further investigate the selected compounds binding activities with α-Syn PFFs, fluorescence spectroscopy titrations were conducted to quantitatively measure compounds emission intensity when interacting with different concentrations of α-Syn PFFs. The UV spectrum of each compound was determined and selected for the optimal wavelength to conduct the fluorescence spectroscopic studies.

For data set [9], the target named is T4, Lewy bodies in α-Syn A53T virus injected WT mice brain slices (Homo sapiens, UniProt P37840, A53T).
T4 construct: from tissue; host or cells: brain (substantia nigra) of wild-type mice injected with α-Syn A53T virus
Description: staining of mouse brain slices with Lewy bodies. The format is binding. On the procedure: (§7) To further explore whether the positive compounds selectively bind to the Lewy bodies, α-Syn A53T patient-derived mutant virus injected WT mice brain slices were employed. These mice display extensive Lewy bodies in the SN.
(§8) To further explore whether the positive compounds selectively bind to the Lewy bodies, a α-Syn A53T patient-derived mutant virus was injected into WT mice brain slices. These mice display extensive Lewy bodies in the Substantial nigra (SN). Moreover, P301S mice expressed neurofibrillary tangles (NFT). The Lewy bodies were labeled with p-α-Syn S129 antibody and the positive aggregates were also labeled with the fluorescent signals from the small molecules. […] However, it was worth noting that almost none of the tested compounds were reactive with NFT.

Data set [10] has as its target α-Syn PFFs (Homo sapiens, UniProt P37840). In words: fluorescence spectroscopy titration with α-Syn PFFs. The format is binding. Conditions: 0.08 μM fibrils, 5 μM small molecule; result in words. On the procedure: as §5, §6
Data set [11] concerns the target T5, Aβ PFFs (Homo sapiens, UniProt P05067).
T5 construct: counter-screening with Tau and Aβ PFFs
Description: fluorescence spectroscopy titration with Aβ PFFs. The format is binding. The following applies: 0.08 μM fibrils, 5 μM small molecule; result in words. How it is done:
as §5, §6

For data set [12], the system named is senile plaques and NFT in 5×FAD, 3×Tg and Tau P301S mice. In words: brain section staining after in vivo administration, senile plaques and NFT. On the set-up: species or system mouse. On the procedure: as §3, §4
For data set [13], the system named is NFT in Tau P301S and 3×Tg mice brain sections. In words: staining of mouse brain sections with NFT. In kind it is binding. How it is done: as §7, §8
For data set [14], the target named is T6, senile plaques in 5×FAD and 3×Tg mice brain sections (Homo sapiens, UniProt P05067).
T6 construct: Aβ-enriched senile plaques; from tissue; host or cells: brain sections of 5×FAD and 3×Tg mice
In words: staining of mouse brain sections with senile plaques. In kind it is binding.

Tau PFFs, sequence (P10636 whole entry): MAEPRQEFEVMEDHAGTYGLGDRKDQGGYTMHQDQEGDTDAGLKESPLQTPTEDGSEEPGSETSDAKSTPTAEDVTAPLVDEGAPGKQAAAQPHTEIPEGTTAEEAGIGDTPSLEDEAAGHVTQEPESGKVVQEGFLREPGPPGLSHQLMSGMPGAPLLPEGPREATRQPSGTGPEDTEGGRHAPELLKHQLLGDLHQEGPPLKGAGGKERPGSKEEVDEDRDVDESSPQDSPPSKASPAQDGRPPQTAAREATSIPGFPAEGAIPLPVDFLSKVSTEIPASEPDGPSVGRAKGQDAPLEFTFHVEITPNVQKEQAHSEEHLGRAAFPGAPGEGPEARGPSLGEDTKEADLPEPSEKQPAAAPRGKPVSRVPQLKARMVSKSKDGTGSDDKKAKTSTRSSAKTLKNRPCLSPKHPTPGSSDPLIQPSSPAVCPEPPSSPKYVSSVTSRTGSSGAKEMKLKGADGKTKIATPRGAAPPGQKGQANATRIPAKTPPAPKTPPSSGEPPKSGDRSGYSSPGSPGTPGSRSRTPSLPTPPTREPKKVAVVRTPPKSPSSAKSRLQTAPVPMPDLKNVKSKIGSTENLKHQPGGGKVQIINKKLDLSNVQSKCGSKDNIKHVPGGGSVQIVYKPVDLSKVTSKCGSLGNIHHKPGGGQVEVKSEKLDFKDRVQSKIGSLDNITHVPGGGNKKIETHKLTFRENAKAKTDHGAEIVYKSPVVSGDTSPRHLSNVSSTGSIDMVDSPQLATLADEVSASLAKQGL
T6 sequence (P05067 672-713 limits assumed): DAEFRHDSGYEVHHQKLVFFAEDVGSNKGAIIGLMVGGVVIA
T5 sequence (P05067 672-713 limits assumed): as above

Regarding `Cc1cc2nc(/C=C/c3ccc(O)c(Br)c3)sc2cc1N(C)CCOCCF` [F0502B, (E)-2-bromo-4-(2-(6-((2-(2-fluoroethoxy)ethyl)(methyl)amino)-5-methylbenzo[d]thiazol-2-yl)vinyl)phenol], in data set [1], the “displacement of [18F]F0502B from α-Syn fibrils” value is “selectively stripped off by increasing concentrations of cold F0502B”. The “staining of senile plaques or NFT (Aβ, AT8 positive aggregates)” value in data set [2] was “not senile plaques or NFT from 5×FAD, 3×Tg and Tau P301S mice or AD patients”. For the same molecule, the “staining of LBs and LNs” value in data set [3] is listed as “specifically associated with α-Syn aggregates”. In [4] (F0502B 5 mg/kg i.v., mice sacrificed in 2 h, ThS stain on sections), the “co-localisation with anti-p-S129 stained Lewy bodies” value is “colocalized with both F0502B and ThS”. Moreover, in data set [4] (two hours after tail injection of 2 mg/kg of compound 13, A53T mice), the “staining of Lewy body by brain generated F0502B” value is reported as “selectively stained Lewy body in A53T mice”. The C1 rate entry in data set [5] is listed as “approximately 3.92 L/h/kg”. Also, the decay in plasma result in [5] (result in words) was “almost completely decayed at 8 h in the plasm”. In data set [5] (result in words, 5 mg/kg), the “brain entry and accumulation” value is “swiftly entered the brain and accumulated in the brain compared to the plasma; also recorded: preferentially enriched in the brain”. Further, the Kp at 0.5 h in data set [5] (mouse, brain, iv, 0.5 h, read-out: B/P ratio) worked out at 4.16. Also, the Kp at 1 h in data set [5] (mouse, brain, iv, 1 h, read-out: B/P ratio) came out at 13.4. Moreover, in data set [5] (mouse, brain, iv, 4 h, read-out: B/P ratio), the Kp at 4 h came out at 26. Further, the half-life in [5] (mouse, plasma, iv, read-out: half-life t1/2 (converted)) was 1.16 h. Moreover, in data set [6], the “fluorescent signal in α-Syn aggregated neurons” value is “specifically associated with α-Syn aggregates”. Further, in [7], the “blocking of [18F]F0502B binding in brain sections” value is listed as “binding activities were blocked by excessive cold F0502B”. Further, the “binding to Tau PFFs by fluorescent emission intensity” value in [8] was “barely bound to Aβ or Tau fibrils”. The “staining of Lewy bodies (p-α-Syn S129 positive)” value in data set [9] is on record as “specifically associated with α-Syn aggregates”. Moreover, the “binding to α-Syn PFFs by fluorescent emission intensity” value in data set [10] is given as “specifically associated with α-Syn fibrils”. For the same molecule, in data set [11], the “binding to Aβ PFFs by fluorescent emission intensity” value was “barely bound to Aβ or Tau fibrils”. The “staining of senile plaques and NFT” value in data set [12] (F0502B 5 mg/kg i.v., 2 h, 5×FAD, 3×Tg, Tau P301S mice) is recorded as “does not co-stain Aβ or Tau aggregates”. Further, the “staining of senile plaques or NFT by brain generated F0502B” value in data set [12] (two hours after tail injection of 2 mg/kg of compound 13, AD mouse models) is given as “not senile plaques or NFT in various AD mouse models”. The “staining of NFT” value in [13] was “not senile plaques or NFT from 5×FAD, 3×Tg and Tau P301S mice”. The “staining of senile plaques” value in data set [14] is “not senile plaques or NFT from 5×FAD, 3×Tg and Tau P301S mice”.
